Reference: patent US12077503B2, “Substituted cyclic amides and their use as herbicides” (FMC CORPORATION, priority 2015, dated 2024)

Assays:
Format in all cases: in vivo
[1] = test system: barnyardgrass (Echinochloa crus-galli); experiment: Test G Pre-Emergence Protocol; conditions: Echinochloa crus-galli, pre-emergence, 312 h, evaluated after 13 days; for pest or weed control at 15.625 g/ha: 15.625 g ai/ha, read-out: Barnyard grass damage rating (100=total damage to plant; 0=no damage to plant); for pest or weed control at 62.5 g/ha: 62.5 g ai/ha, 100=total damage to plant, 0=no damage to plant, read-out: plant damage rating, Barnyardgrass; for pest or weed control at 250 g/ha: 250 g ai/ha, read-out: Barnyardgrass damage rating (100=total damage to plant; 0=no damage to plant)
Summary of the method: (§1)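 Seeds were sown in standard soil and kept one day in a glasshouse (24/16° C day/night, 14 h light, 65% humidity), then sprayed with compound in acetone/water (50:50) containing 0.5% Tween 20 at 15.625, 62.5 or 250 g/ha. Damage was scored after 13 days (0 = none, 100 = total).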

[2] = test system: corn (Zea mays); experiment: Test G Pre-Emergence Protocol; conditions: Zea mays, pre-emergence, 312 h, evaluated after 13 days; for plant injury at 15.625 g/ha: 15.625 g ai/ha; for plant injury at 15.625 g/ha / plant injury at 250 g/ha: read-out: Corn damage rating (100=total damage to plant; 0=no damage to plant); for plant injury at 62.5 g/ha: 62.5 g ai/ha, 100=total damage to plant, 0=no damage to plant, read-out: plant damage rating, Corn; for plant injury at 250 g/ha: 250 g ai/ha
Summary of the method: as §1

[3] = test system: giant foxtail (Setaria faberi); experiment: Test G Pre-Emergence Protocol; conditions: Setaria faberi, pre-emergence, 312 h, evaluated after 13 days; for pest or weed control at 15.625 g/ha: 15.625 g ai/ha; for pest or weed control at 15.625 g/ha / pest or weed control at 250 g/ha: read-out: Foxtail, Giant damage rating (100=total damage to plant; 0=no damage to plant); for pest or weed control at 62.5 g/ha: 62.5 g ai/ha, 100=total damage to plant, 0=no damage to plant, read-out: plant damage rating, Foxtail, Giant; for pest or weed control at 250 g/ha: 250 g ai/ha
Summary of the method: as §1

[4] = test system: ivy-leaved morning glory (Ipomoea hederacea); experiment: Test G Pre-Emergence Protocol; conditions: Ipomoea, pre-emergence, 312 h, evaluated after 13 days; for pest or weed control at 15.625 g/ha: 15.625 g ai/ha, read-out: Morning-glory, Ivy-leaved damage rating (100=total damage to plant; 0=no damage to plant); for pest or weed control at 62.5 g/ha: 62.5 g ai/ha, 100=total damage to plant, 0=no damage to plant, read-out: plant damage rating, Morningglory, Ivy-leaved; for pest or weed control at 250 g/ha: 250 g ai/ha, read-out: Morningglory, Ivy-leaved damage rating (100=total damage to plant; 0=no damage to plant)
Summary of the method: as §1

[5] = test system: redroot pigweed (Amaranthus retroflexus); experiment: Test G Pre-Emergence Protocol; conditions: Amaranthus retroflexus, pre-emergence, 312 h, evaluated after 13 days; for pest or weed control at 15.625 g/ha: 15.625 g ai/ha; for pest or weed control at 15.625 g/ha / pest or weed control at 250 g/ha: read-out: Pigweed, Redroot damage rating (100=total damage to plant; 0=no damage to plant); for pest or weed control at 62.5 g/ha: 62.5 g ai/ha, 100=total damage to plant, 0=no damage to plant, read-out: plant damage rating, Pigweed, Redroot; for pest or weed control at 250 g/ha: 250 g ai/ha
Summary of the method: as §1

[6] = test system: velvetleaf (Abutilon theophrasti); experiment: Test G Pre-Emergence Protocol; conditions: Abutilon theophrasti, pre-emergence, 312 h, evaluated after 13 days; for pest or weed control at 15.625 g/ha: 15.625 g ai/ha; for pest or weed control at 15.625 g/ha / pest or weed control at 250 g/ha: read-out: Velvetleaf damage rating (100=total damage to plant; 0=no damage to plant); for pest or weed control at 62.5 g/ha: 62.5 g ai/ha, 100=total damage to plant, 0=no damage to plant, read-out: plant damage rating, Velvetleaf; for pest or weed control at 250 g/ha: 250 g ai/ha
Summary of the method: as §1

[7] = test system: barnyardgrass (Echinochloa crus-galli); experiment: Test G Post-Emergence Protocol; conditions: Echinochloa crus-galli, post-emergence, 312 h; for pest or weed control at 15.625 g/ha: 15.625 g ai/ha, evaluated after 13 days (100=total damage to plant; 0=no damage to plant), read-out: Barnyardgrass damage rating; for pest or weed control at 62.5 g/ha: 62.5 g ai/ha, read-out: Barnyardgrass damage rating (100=total damage to plant; 0=no damage to plant); for pest or weed control at 62.5 g/ha / pest or weed control at 250 g/ha: evaluated after 13 days; for pest or weed control at 250 g/ha: 250 g ai/ha, read-out: damage to plant, Barnyardgrass (100=total damage to plant; 0=no damage to plant)
Summary of the method: (§2)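 Damage was rated 13 days after treatment from 0 (none) to 100 (plant killed). Compound was applied as a spray at 15.625, 62.5 or 250 g/ha in 50:50 acetone/water containing 0.5% Tween 20, onto 8-day-old potted plants kept in a glasshouse (24/16 °C, 14 h light, 65% humidity).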

[8] = test system: corn (Zea mays); experiment: Test G Post-Emergence Protocol; conditions: Zea mays, post-emergence, 312 h; for plant injury at 15.625 g/ha: 15.625 g ai/ha, evaluated after 13 days (100=total damage to plant; 0=no damage to plant), read-out: Corn damage rating; for plant injury at 62.5 g/ha: 62.5 g ai/ha, read-out: Corn damage rating (100=total damage to plant; 0=no damage to plant); for plant injury at 62.5 g/ha / plant injury at 250 g/ha: evaluated after 13 days; for plant injury at 250 g/ha: 250 g ai/ha, read-out: damage to plant, Corn (100=total damage to plant; 0=no damage to plant)
Summary of the method: as §2

[9] = test system: giant foxtail (Setaria faberi); experiment: Test G Post-Emergence Protocol; conditions: Setaria faberi, post-emergence, 312 h; for pest or weed control at 15.625 g/ha: 15.625 g ai/ha, evaluated after 13 days (100=total damage to plant; 0=no damage to plant), read-out: Foxtail, Giant damage rating; for pest or weed control at 62.5 g/ha: 62.5 g ai/ha, read-out: Foxtail, Giant damage rating (100=total damage to plant; 0=no damage to plant); for pest or weed control at 62.5 g/ha / pest or weed control at 250 g/ha: evaluated after 13 days; for pest or weed control at 250 g/ha: 250 g ai/ha, read-out: damage to plant, Foxtail, Giant (100=total damage to plant; 0=no damage to plant)
Summary of the method: as §2

[10] = test system: ivy-leaved morning glory (Ipomoea hederacea); experiment: Test G Post-Emergence Protocol; conditions: Ipomoea, post-emergence, 312 h; for pest or weed control at 15.625 g/ha: 15.625 g ai/ha, evaluated after 13 days (100=total damage to plant; 0=no damage to plant), read-out: Morningglory, Ivy-leaved damage rating; for pest or weed control at 62.5 g/ha: 62.5 g ai/ha, read-out: Morningglory, Ivy-leaved damage rating (100=total damage to plant; 0=no damage to plant); for pest or weed control at 62.5 g/ha / pest or weed control at 250 g/ha: evaluated after 13 days; for pest or weed control at 250 g/ha: 250 g ai/ha, read-out: damage to plant, Morningglory, Ivy-leaved (100=total damage to plant; 0=no damage to plant)
Summary of the method: as §2

[11] = test system: redroot pigweed (Amaranthus retroflexus); experiment: Test G Post-Emergence Protocol; conditions: Amaranthus retroflexus, post-emergence, 312 h; for pest or weed control at 15.625 g/ha: 15.625 g ai/ha, evaluated after 13 days (100=total damage to plant; 0=no damage to plant), read-out: Pigweed, Redroot damage rating; for pest or weed control at 62.5 g/ha: 62.5 g ai/ha, read-out: Pigweed, Redroot damage rating (100=total damage to plant; 0=no damage to plant); for pest or weed control at 62.5 g/ha / pest or weed control at 250 g/ha: evaluated after 13 days; for pest or weed control at 250 g/ha: 250 g ai/ha, read-out: damage to plant, Pigweed, Redroot (100=total damage to plant; 0=no damage to plant)
Summary of the method: as §2

[12] = test system: velvetleaf (Abutilon theophrasti); experiment: Test G Post-Emergence Protocol; conditions: Abutilon theophrasti, post-emergence, 312 h; for pest or weed control at 15.625 g/ha: 15.625 g ai/ha, evaluated after 13 days (100=total damage to plant; 0=no damage to plant), read-out: Velvetleaf damage rating; for pest or weed control at 62.5 g/ha: 62.5 g ai/ha, read-out: Velvetleaf damage rating (100=total damage to plant; 0=no damage to plant); for pest or weed control at 62.5 g/ha / pest or weed control at 250 g/ha: evaluated after 13 days; for pest or weed control at 250 g/ha: 250 g ai/ha, read-out: damage to plant, Velvetleaf (100=total damage to plant; 0=no damage to plant)
Summary of the method: as §2

Cc1cc(NC(=O)[C@@H]2C(=O)N(C)C[C@H]2c2ccc(C(F)(F)F)cc2)ccn1 (racemic) [Compound 1600]
pest or weed control at 15.625 g/ha [1]: 0%
pest or weed control at 62.5 g/ha [1]: 0%
pest or weed control at 250 g/ha [1]: 0%
plant injury at 15.625 g/ha [2]: 0%
plant injury at 62.5 g/ha [2]: 0%
plant injury at 250 g/ha [2]: 0%
pest or weed control at 15.625 g/ha [3]: 0%
pest or weed control at 62.5 g/ha [3]: 0%
pest or weed control at 250 g/ha [3]: 0%
pest or weed control at 15.625 g/ha [4]: 0%
pest or weed control at 62.5 g/ha [4]: 0%
pest or weed control at 250 g/ha [4]: 0%
pest or weed control at 15.625 g/ha [5]: 0%
pest or weed control at 62.5 g/ha [5]: 0%
pest or weed control at 250 g/ha [5]: 0%
pest or weed control at 15.625 g/ha [6]: 0%
pest or weed control at 62.5 g/ha [6]: 0%
pest or weed control at 250 g/ha [6]: 0%
pest or weed control at 15.625 g/ha [7]: 0%
pest or weed control at 62.5 g/ha [7]: 0%
pest or weed control at 250 g/ha [7]: 0%
plant injury at 15.625 g/ha [8]: 0%
plant injury at 62.5 g/ha [8]: 0%
plant injury at 250 g/ha [8]: 0%
pest or weed control at 15.625 g/ha [9]: 0%
pest or weed control at 62.5 g/ha [9]: 0%
pest or weed control at 250 g/ha [9]: 0%
pest or weed control at 15.625 g/ha [10]: 0%
pest or weed control at 62.5 g/ha [10]: 0%
pest or weed control at 250 g/ha [10]: 0%
pest or weed control at 15.625 g/ha [11]: 0%
pest or weed control at 62.5 g/ha [11]: 0%
pest or weed control at 250 g/ha [11]: 0%
pest or weed control at 15.625 g/ha [12]: 0%
pest or weed control at 62.5 g/ha [12]: 0%
pest or weed control at 250 g/ha [12]: 0%

CN1C[C@@H](c2ccc(C(F)(F)F)cc2)[C@H](C(=O)Nc2cccc(Cl)n2)C1=O (racemic) [Compound 1606]
pest or weed control at 15.625 g/ha [1]: 0%
pest or weed control at 62.5 g/ha [1]: 20%
pest or weed control at 250 g/ha [1]: 60%
plant injury at 15.625 g/ha [2]: 0%
plant injury at 62.5 g/ha [2]: 0%
plant injury at 250 g/ha [2]: 10%
pest or weed control at 15.625 g/ha [3]: 0%
pest or weed control at 62.5 g/ha [3]: 60%
pest or weed control at 250 g/ha [3]: 90%
pest or weed control at 15.625 g/ha [4]: 0%
pest or weed control at 62.5 g/ha [4]: 0%
pest or weed control at 250 g/ha [4]: 10%
pest or weed control at 15.625 g/ha [5]: 0%
pest or weed control at 62.5 g/ha [5]: 0%
pest or weed control at 250 g/ha [5]: 0%
pest or weed control at 15.625 g/ha [6]: 0%
pest or weed control at 62.5 g/ha [6]: 0%
pest or weed control at 250 g/ha [6]: 0%
pest or weed control at 15.625 g/ha [7]: 20%
pest or weed control at 62.5 g/ha [7]: 40%
pest or weed control at 250 g/ha [7]: 50%
plant injury at 15.625 g/ha [8]: 0%
plant injury at 62.5 g/ha [8]: 0%
plant injury at 250 g/ha [8]: 0%
pest or weed control at 15.625 g/ha [9]: 40%
pest or weed control at 62.5 g/ha [9]: 70%
pest or weed control at 250 g/ha [9]: 80%
pest or weed control at 15.625 g/ha [10]: 0%
pest or weed control at 62.5 g/ha [10]: 0%
pest or weed control at 250 g/ha [10]: 30%
pest or weed control at 15.625 g/ha [11]: 40%
pest or weed control at 62.5 g/ha [11]: 40%
pest or weed control at 250 g/ha [11]: 100%
pest or weed control at 15.625 g/ha [12]: 0%
pest or weed control at 62.5 g/ha [12]: 0%
pest or weed control at 250 g/ha [12]: 60%
